# According to PMC6850446, “In vivo inactivation of glycosidases by conduritol B epoxide and cyclophellitol as revealed by activity‐based protein profiling” (The Febs Journal, 2019):
# Like-named read-outs stand apart in the source and are kept apart here.
# Tests used:
# GBA (zebrafish larvae) = target: T1, GBA (zebrafish larvae) (Danio rerio, UniProt E7EZM1); experiment: live larvae exposed, residual activity in lysate with 4MU-glucoside; details: covalent, in vivo: concentration in egg water, 5 days at 28.5 °C, assay pH 5.2 with AMP-DNM
# T1 construct: gene gba1; endogenous enzyme in larvae, measured in larval lysate
# T1 sequence (E7EZM1 20-518): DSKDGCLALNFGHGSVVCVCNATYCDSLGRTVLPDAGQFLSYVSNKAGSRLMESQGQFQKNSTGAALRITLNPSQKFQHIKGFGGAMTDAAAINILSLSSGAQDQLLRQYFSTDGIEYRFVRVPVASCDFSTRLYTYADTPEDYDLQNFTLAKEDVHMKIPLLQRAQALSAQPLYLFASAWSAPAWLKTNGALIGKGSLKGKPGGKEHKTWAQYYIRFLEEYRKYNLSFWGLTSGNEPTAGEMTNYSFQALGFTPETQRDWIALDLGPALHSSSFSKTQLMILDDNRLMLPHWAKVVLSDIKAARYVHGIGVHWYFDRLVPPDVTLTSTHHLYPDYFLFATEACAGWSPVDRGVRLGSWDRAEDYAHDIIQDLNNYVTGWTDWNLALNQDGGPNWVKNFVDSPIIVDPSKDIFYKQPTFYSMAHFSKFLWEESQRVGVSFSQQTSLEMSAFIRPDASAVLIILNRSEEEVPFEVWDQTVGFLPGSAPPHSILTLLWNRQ
# Text: live larvae exposed, residual activity in lysate with 4MU-glucoside on GBA (zebrafish larvae)
# [1] = target: T2, GBA2 (nonlysosomal glucosylceramidase) (Homo sapiens, UniProt Q9HCG7); experiment: intact cells treated, residual activity in lysate with 4MU-glucoside; assay type: cell-based
# T2 construct: human GBA2 stably expressed in HEK293T; 110 kDa on gel
# T2 sequence (Q9HCG7 1-927): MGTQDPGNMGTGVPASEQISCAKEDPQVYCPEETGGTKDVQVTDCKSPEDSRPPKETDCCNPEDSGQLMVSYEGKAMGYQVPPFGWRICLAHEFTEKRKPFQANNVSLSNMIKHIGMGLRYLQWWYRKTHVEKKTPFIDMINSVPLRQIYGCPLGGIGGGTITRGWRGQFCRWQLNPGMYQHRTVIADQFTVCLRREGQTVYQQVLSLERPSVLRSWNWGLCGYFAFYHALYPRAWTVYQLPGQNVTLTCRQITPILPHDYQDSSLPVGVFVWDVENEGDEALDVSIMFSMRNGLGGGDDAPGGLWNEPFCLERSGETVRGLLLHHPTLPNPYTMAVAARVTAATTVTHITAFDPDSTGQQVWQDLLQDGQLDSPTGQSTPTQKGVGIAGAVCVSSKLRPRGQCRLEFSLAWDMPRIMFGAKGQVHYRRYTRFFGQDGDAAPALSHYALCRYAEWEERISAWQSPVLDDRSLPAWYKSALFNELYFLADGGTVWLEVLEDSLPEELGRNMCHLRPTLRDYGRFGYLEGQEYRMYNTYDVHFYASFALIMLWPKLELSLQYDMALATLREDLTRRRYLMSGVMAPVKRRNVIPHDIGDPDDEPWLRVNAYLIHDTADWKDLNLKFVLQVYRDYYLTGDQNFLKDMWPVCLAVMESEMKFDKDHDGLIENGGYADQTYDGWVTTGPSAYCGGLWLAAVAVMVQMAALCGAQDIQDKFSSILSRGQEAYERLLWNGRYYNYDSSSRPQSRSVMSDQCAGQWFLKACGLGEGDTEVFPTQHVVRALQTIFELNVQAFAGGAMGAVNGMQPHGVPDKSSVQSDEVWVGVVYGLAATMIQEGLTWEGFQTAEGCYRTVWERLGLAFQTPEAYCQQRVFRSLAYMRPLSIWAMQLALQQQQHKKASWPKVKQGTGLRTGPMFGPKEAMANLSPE
# Text: intact cells treated, residual activity in lysate with 4MU-glucoside on GBA2 (nonlysosomal glucosylceramidase)
# [2] = target: T3, recombinant human GBA (rGBA, imiglucerase) (Homo sapiens, UniProt P04062, R534H); experiment: residual activity, fluorogenic 4MU-glucoside assay; assay type: biochemical; details: covalent, irreversible, 180 min preincubation, pH 5.2, 37 °C, 0.2% taurocholate, 0.1% Triton X-100, 3.75 mM 4MU-beta-D-glucopyranoside
# T3 construct: gene GBA1; imiglucerase (Sanofi Genzyme), mature secreted enzyme
# T3 sequence (P04062 40-536 R534H): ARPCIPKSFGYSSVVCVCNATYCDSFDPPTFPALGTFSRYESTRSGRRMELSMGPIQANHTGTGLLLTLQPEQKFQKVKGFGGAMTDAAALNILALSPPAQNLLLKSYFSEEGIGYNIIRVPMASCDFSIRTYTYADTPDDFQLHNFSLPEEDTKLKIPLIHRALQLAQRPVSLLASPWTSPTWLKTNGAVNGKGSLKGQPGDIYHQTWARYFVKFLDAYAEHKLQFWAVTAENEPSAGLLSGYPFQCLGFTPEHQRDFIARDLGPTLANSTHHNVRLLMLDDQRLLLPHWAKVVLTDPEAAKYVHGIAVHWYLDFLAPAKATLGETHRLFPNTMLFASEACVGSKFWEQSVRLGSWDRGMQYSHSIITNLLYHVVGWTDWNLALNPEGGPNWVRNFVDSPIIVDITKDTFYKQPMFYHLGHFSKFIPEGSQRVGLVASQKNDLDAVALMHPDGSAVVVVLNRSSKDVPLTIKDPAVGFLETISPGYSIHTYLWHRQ
# Text: residual activity, fluorogenic 4MU-glucoside assay on recombinant human GBA (rGBA, imiglucerase)
# GBA3 = target: T4, GBA3 (Homo sapiens, UniProt Q9H227); experiment: intact cells treated, residual activity in lysate supernatant with 4MU-glucoside; assay type: cell-based
# T4 construct: human GBA3 overexpressed in HEK293T; expected 45-53 kDa
# T4 sequence (Q9H227 1-469): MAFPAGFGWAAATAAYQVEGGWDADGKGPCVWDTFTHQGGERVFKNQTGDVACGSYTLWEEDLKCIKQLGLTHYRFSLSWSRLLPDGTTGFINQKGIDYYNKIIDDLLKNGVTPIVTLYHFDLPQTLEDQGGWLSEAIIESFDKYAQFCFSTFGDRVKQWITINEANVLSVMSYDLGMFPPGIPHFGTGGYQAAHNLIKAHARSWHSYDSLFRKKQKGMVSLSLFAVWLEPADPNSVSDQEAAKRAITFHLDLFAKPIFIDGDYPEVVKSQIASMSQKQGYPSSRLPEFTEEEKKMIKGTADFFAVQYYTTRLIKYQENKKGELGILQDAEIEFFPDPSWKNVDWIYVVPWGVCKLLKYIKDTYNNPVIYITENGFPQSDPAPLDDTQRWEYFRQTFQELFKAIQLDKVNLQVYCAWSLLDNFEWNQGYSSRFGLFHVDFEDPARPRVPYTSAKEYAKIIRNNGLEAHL
# Text: intact cells treated, residual activity in lysate supernatant with 4MU-glucoside on GBA3
IC50 (GBA (zebrafish larvae); read-out: CBE / Enz. assay) [µM],IC50 ([1]; read-out: CBE / Enz. assay) [µM],IC50 ([2]; read-out: CBE / Enz. assay) [µM],IC50 (GBA3; read-out: CBE / Enz. assay) [µM],Structure (SMILES),IC50 (GBA (zebrafish larvae); read-out: CP / Enz. assay) [µM],IC50 ([1]; read-out: CP / Enz. assay) [µM],IC50 ([2]; read-out: CP / Enz. assay) [µM],IC50 (GBA3; read-out: CP / Enz. assay) [µM]
58.5,272,4.28,474,"OC1C(O)C(O)C2OC2C1O (centres unmarked) [compound 1, conduritol B epoxide]",–,–,–,–
–,–,–,–,"OC[C@@H]1[C@@H](O)[C@H](O)[C@@H](O)[C@@H]2O[C@H]12 [compound 2, cyclophellitol]",0.13,0.198,0.03,> 10
